One experiment relates to souris. The settings on record: mouse; for Nombre de passages (moyenne): 60 min before test, controls 5,5.
The test system of experiment [1] is singes cynomolggus (Macaca fascicularis). The settings on record: monkey.
Description: L'étude a été réalisée chez sept singes cynomolggus (Macaca fascicularis), de sexe mâle et femelle, pesant entre 2 et 5 kg.
Un mois avant le début de l'étude, sous anesthésie générale (kétamine + xylazine) huit électrodes (boules d'argent) ont été implantées dans la table osseuse, au niveau des aires frontale, centrale, pariétale et occipitale droites et gauche. L'électrocorticogramme a été enregistré sur un électroencéphalographe REEGA mini-huit (Alvar Electronic) en dérivations monopolaires par rapport à une référence commune.
Les enregistrements ont été réalisés sur des animaux habitués au siège à contention, en position assise, dans une pièce calme mais non insonorisée, en ambiance lumineuse tamisée.
Les huit dérivations EEG ont été analysées simultanément par un Neuromapper 1620 (Neuroscience) qui extrait du signal les transformées de Fourier ("Fast Fourier Transform" : FFT). En fait, 90 échantillons de 2 secondes, soit 3 minutes de tracé exempt d'artefact, ont été analysés. Les données recueillies correspondent à l'amplitude (»V) de chacune des 5 bandes de fréquence EEG classiques selon les bornes suivantes : delta de 0 à 4 Hz ; thêta de 7 à 8 Hz ; alpha de 8 à 13 Hz, bêta₁ de 13 à 20 Hz ; bêta₂ de 20 à 30 Hz.
Pour chacune de ces bandes ont ensuite été calculées : • Les puissances absolues en »V² • les puissances relatives (%), c'est-à-dire la puissance de chacune des bandes de fréquence rapportée à la puissance totale du spectre (power) • la "SEF 95 % (Spectral Edge Frequency 95 %) qui est la fréquence en deçà de laquelle se situent 95 % de la puissance totale du spectre, • le rapport entre fréquences rapides et fréquences lentes : alpha+ bêta/delta + thêta ( α+β/δ+ϑ [formula] )
La dernière ingestion a précédé de 1 heure la seconde administration de diazépam.
Le diazépam (ampoules injectables - Valium® 10 - Roche) a été administré par voie orale, en solution aqueuse, sous un volume de 10 ml/singe, à des doses comprises entre 0,5 mg.kg⁻¹ et 4 mg.kg⁻¹ (doses différentes du fait d'une sensibilité individuelle propre à chaque sujet).
100 (le seuil de probabilité statistique choisi peut paraître élevé ; il est en rapport avec le faible nombre de sujets : n=7). L'ensemble de l'analyse statistique a été obtenu grâce au programme statistique SPSS/PC⁺ (SPSS Inc., Chicago)

SMILES strings stand for the structures. Read-outs that look alike come from different tables or passages of the source.

The source of these data is EP0476120B1, “PROCESS FOR PREPARING EQUIMOLAR SALTS OF ASPARTIC ACID AND MAGNESIUM, MAGNESIUM ASPARTATE SALT OBTAINED BY SAID PROCESS AND ITS APPLICATIONS” (LA[…] SPINDLER, priority 1990, dated 1991).

Description for souris: Le test est pratiqué chez des souris NMRI-HAN soumises à une diète hydrique préalable de 18 heures et réparties en séries de 15.
L'appareillage utilisé consiste en une boite en plexiglas dont le sol est constitué de 4 plaques métalliques séparées les unes des autres. Un circuit d'alimentation permet d'établir une différence de potentiel entre deux plaques adjacentes grâce à un contacteur. Le test est pratiqué en plaçant doucement une souris sur une des plaques du fond de l'appareil ; les plaques sont électrifiées chaque fois que la souris passe de l'une à l'autre, de telle sorte qu'elle reçoit alors un choc électrique au niveau des pattes. Les paramètres du choc sont les suivants : durée de l'impulsion électrique égale à 0,5 seconde ; intensité égale à 0,6 milliampères. Ce choc induit chez les animaux une réaction motrice évidente de fuite, la souris traversant souvent 2 à 3 plaques successivement. Les conditions expérimentales adoptées ont été les suivantes : exploration libre pendant 15 secondes, traversée punie pendant la minute suivante, les résultats étant exprimés en nombre de passages "punis" pendant cette minute. Soixante souris ont été réparties de la façon suivante :
Les administrations ont été réalisées par voie intra-gastrique, à partir de solutions aqueuses, sous un volume constant de 20 ml.kg⁻¹, 60 minutes avant le début du test. Les animaux contrôles ont reçu un même volume d'eau distillée.
Les administrations ont été réalisées par voie intra-gastrique, à partir de solutions aqueuses, sous un volume constant de 20 ml.kg⁻¹ par produit 60 minutes avant le début du test. Les animaux contrôles ont reçu un même volume d'eau distillée.
Dans un premier temps a été calculée la DA 50 (dose anxiolytique 50) du Diazépam (Valium® 10 mg - Roche, ampoule 2ml) seul, administré à des doses suivant une progression géométrique de base 0,25 et de raison 2, soit respectivement 0,25, 0,5 l et 2 mg.kg⁻¹.
La DA 50 est déterminée à partir du pourcentage d'animaux tranquillisés. Est considéré comme tranquillisé tout animal dont le nombre de passages punis est égal ou supérieur à 9, c'est-à-dire à une valeur représentant une augmentation d'au moins 50 % par rapport au score moyen d'animaux non traités.
Toutes les administrations ont été réalisées par voie intra-gastrique à partir de solutions aqueuses, sous un volume constant de 20 ml.kg⁻¹ (eau distillée pour le groupe contrôle). […] La veille du test, les souris sont soumises à une diète hydrique de 18 heures. La dernière ingestion est pratiquée une heure avant l'étude, concomitamment avec le diazépam (Valium® 10 mg - Roche, ampoules de 2 ml).

Consider `CN1C(=O)CN=C(c2ccccc2)c2cc(Cl)ccc21` [Diazépam, reference compound], for which the “Nombre de passages (moyenne)” value in the experiment on souris (Valium alone 0,5 mg.kg⁻¹ P.O.) was 7,7; in the experiment with souris (Valium alone 0,25 mg.kg⁻¹ P.O.), 7,3; with souris (Valium alone 1 mg.kg⁻¹ P.O.), 9,5; in the experiment with souris (Valium alone 2 mg.kg⁻¹ P.O.), 10,6. Moreover, the “DA 50 (dose anxiolytique 50)” value in the experiment with souris (diazepam alone P.O., from % tranquillised animals (>= 9 punished crossings)) is 0,76 mg.kg⁻¹. In addition, in experiment [1] (diazepam alone 0,5-4 mg.kg⁻¹ P.O.), the “durée de l'action” value is listed as “jusqu'à la 5ème heure”. The “valeurs du rapport α+β/δ+ϑ” value in experiment [1] (diazepam alone 0,5-4 mg.kg⁻¹ P.O., figure 4) was “augmentation durable”. Also, the “acmé de l'effet” value in experiment [1] (diazepam alone 0,5-4 mg.kg⁻¹ P.O., time after ingestion) is listed as 45 minutes à une heure. In addition, the “proportion relative de la bande β₂” value in experiment [1] (diazepam alone 0,5-4 mg.kg⁻¹ orally, at peak effect one hour after ingestion, reference 20 %) is reported as 27%. Also, the “"SEF 95 %": temps du maximum” value in experiment [1] (diazepam alone (first test), figure 3) stood at 30 min.
